Results published in ChEMBL document CHEMBL4699537, “Chalcones as Modulators of Neutrophil Oxidative Burst under Physiological and High Glucose Conditions” (J Nat Prod, 2020).
Each block holds one molecule with its values, some of them ahead of it.

Tests used:
[1] = Inhibition of PMA-induce ROS/RNS generation in human neutrophils measured up to 30 mins in presence of 30 mM glucose by luminol-amplified chemiluminescence method; type: functional, tissue-based; conditions: Neutrophil, 0.5 h
[2] = Inhibition of PMA-induce ROS/RNS generation in human neutrophils measured up to 30 mins in presence of 5.5 mM glucose by luminol-amplified chemiluminescence method; type: functional, tissue-based; conditions: Neutrophil, 0.5 h
Neutrophil [3] = assay: Effect on cell viability in human neutrophils assessed as decrease in cell viability at 50 uM after 1 hr by Propidium staining based flow cytometric analysis
[4] = Ratio of IC50 for inhibition of PMA-induce ROS/RNS generation in human neutrophils measured up to 30 mins in presence of 30 mM glucose to IC50 for inhibition of PMA-induce ROS/RNS generation in human neutrophils measured up to 30 mins in presence of 5.5 mM glucose; type: functional, Neutrophil
Neutrophil [5] = assay: Effect on cell viability in human neutrophils assessed as decrease in cell viability at 25 uM after 1 hr by Propidium staining based flow cytometric analysis
[6] = Inhibition of PMA-induce ROS/RNS generation in human neutrophils at 25 uM measured up to 30 mins in presence of 5.5 mM glucose by luminol-amplified chemiluminescence method relative to control; type: functional, Neutrophil; conditions: time min <=30
[7] = Inhibition of PMA-induce ROS/RNS generation in human neutrophils at 25 uM measured up to 30 mins in presence of 30 mM glucose by luminol-amplified chemiluminescence method relative to control; type: functional, Neutrophil; conditions: time min <=30
Neutrophil [8] = assay: Effect on cell viability in human neutrophils assessed as death cell at 100 uM in presence of 5.5 mM glucose after 1 hr by Propidium staining based flow cytometric analysis (reference value: 0.5 +/- 0.07 %)
Neutrophil [9] = assay: Effect on cell viability in human neutrophils assessed as death cell at 100 uM in presence of 30 mM glucose after 1 hr by Propidium staining based flow cytometric analysis (reference value: 0.8 +/- 0.13 %)
[10] = Inhibition of PMA-induce ROS/RNS generation in human neutrophils at 12.5 uM measured up to 30 mins in presence of 5.5 mM glucose by luminol-amplified chemiluminescence method relative to control; type: functional, Neutrophil; conditions: time min <=30
Neutrophil [11] = assay: Effect on cell viability in human neutrophils assessed as decrease in cell viability at 12.5 uM after 1 hr by Propidium staining based flow cytometric analysis
[12] = Inhibition of PMA-induce ROS/RNS generation in human neutrophils at 12.5 uM measured up to 30 mins in presence of 30 mM glucose by luminol-amplified chemiluminescence method relative to control; type: functional, Neutrophil; conditions: time min <=30
Neutrophil [13] = assay: Effect on cell viability in human neutrophils assessed as decrease in cell viability at 100 uM after 1 hr by Propidium staining based flow cytometric analysis
[14] = Inhibition of PMA-induce ROS/RNS generation in human neutrophils at 3.1 uM measured up to 30 mins in presence of 30 mM glucose by luminol-amplified chemiluminescence method relative to control; type: functional, Neutrophil; conditions: time min <=30
[15] = Inhibition of PMA-induce ROS/RNS generation in human neutrophils at 6.3 uM measured up to 30 mins in presence of 5.5 mM glucose by luminol-amplified chemiluminescence method relative to control; type: functional, Neutrophil; conditions: time min <=30
Neutrophil [16] = assay: Effect on cell viability in human neutrophils assessed as decrease in cell viability at 3.1 uM after 1 hr by Propidium staining based flow cytometric analysis
[17] = Inhibition of PMA-induce NET production in human neutrophils at 50 uM incubated for 30 mins in presence of 30 mM glucose by SytoxGreen staining based fluorescence assay relative to control; type: functional; conditions: Neutrophil, 0.5 h
Neutrophil [18] = assay: Inhibition of PMA-induce NET production in human neutrophils incubated for 30 mins in presence of 30 mM glucose by SytoxGreen staining based fluorescence assay; type: functional, tissue-based
Neutrophil [19] = assay: Effect on cell viability in human neutrophils assessed as decrease in cell viability at 6.3 uM after 1 hr by Propidium staining based flow cytometric analysis
[20] = Inhibition of PMA-induce ROS/RNS generation in human neutrophils at 6.3 uM measured up to 30 mins in presence of 30 mM glucose by luminol-amplified chemiluminescence method relative to control; type: functional, Neutrophil; conditions: time min <=30
[21] = Inhibition of PMA-induce ROS/RNS generation in human neutrophils at 3.1 uM measured up to 30 mins in presence of 5.5 mM glucose by luminol-amplified chemiluminescence method relative to control; type: functional, Neutrophil; conditions: time min <=30
Neutrophil [22] = assay: Effect on cell viability in human neutrophils assessed as death cell at 6.3 uM in presence of 30 mM glucose after 1 hr by Propidium staining based flow cytometric analysis (reference value: 0.8 +/- 0.13 %)
Neutrophil [23] = assay: Effect on cell viability in human neutrophils assessed as death cell at 6.3 uM in presence of 5.5 mM glucose after 1 hr by Propidium staining based flow cytometric analysis (reference value: 0.5 +/- 0.07 %)

IC50 [1]: 11.6 µM
IC50 [2]: 8.8 µM
SMILES: O=C(/C=C/c1ccc(O)cc1)c1ccccc1 [4-HYDROXYCHALCONE]
Activity (Neutrophil [3]): Non-Toxic

IC50 [1]: 15 µM
IC50 [2]: 6.4 µM
SMILES: COc1ccc(/C=C/C(=O)c2ccccc2O)cc1OC
Ratio IC50 [4]: 2
Activity (Neutrophil [3]): Non-Toxic

SMILES: COc1ccc(/C=C/C(=O)c2ccccc2O)cc1
Activity (Neutrophil [5]): Non-Toxic
Imax [6]: 50%
Imax [7]: 32%

IC50 [1]: 27 µM
IC50 [2]: 13 µM
SMILES: O=C(/C=C/c1ccccc1)c1ccccc1 [CHALCONE]
Ratio IC50 [4]: 2
Activity (Neutrophil [8]): 0.6%
Activity (Neutrophil [9]): 5%
Activity (Neutrophil [3]): Non-Toxic

SMILES: COc1ccc(/C=C/C(=O)c2ccc(O)cc2O)cc1
Imax [10]: 46%
Activity (Neutrophil [11]): Non-Toxic
Imax [12]: 44%

IC50 [1]: 3 µM
IC50 [2]: 3.4 µM
SMILES: COc1cc(/C=C/C(=O)c2ccccc2O)cc(OC)c1OC
Activity (Neutrophil [3]): Non-Toxic

IC50 [2]: 2.8 µM
SMILES: Cc1cccc(/C=C/C(=O)c2ccccc2O)c1
Ratio IC50 [4]: 2
Activity (Neutrophil [11]): Non-Toxic
Imax [12]: 47%

IC50 [1]: 3 µM
IC50 [2]: 2.9 µM
SMILES: O=C(/C=C/c1ccc(O)cc1O)c1ccc(O)cc1O
Activity (Neutrophil [11]): Non-Toxic

IC50 [1]: 22.3 µM
IC50 [2]: 27 µM
SMILES: O=C(/C=C/c1cccc(O)c1)c1ccccc1 [3-HYDROXY CHALCONE]
Activity (Neutrophil [13]): Non-Toxic

IC50 [1]: 20 µM
IC50 [2]: 15 µM
SMILES: COc1ccc(/C=C/C(=O)c2ccccc2)cc1OC
Activity (Neutrophil [13]): Non-Toxic

IC50 [1]: 1.5 µM
IC50 [2]: 1.6 µM
SMILES: O=C(/C=C/c1ccc(O)cc1)c1ccccc1O
Activity (Neutrophil [3]): Non-Toxic

IC50 [1]: 12 µM
IC50 [2]: 13 µM
SMILES: O=C(/C=C/c1ccc(O)cc1O)c1ccccc1
Activity (Neutrophil [5]): Non-Toxic

IC50 [1]: 5.7 µM
IC50 [2]: 3 µM
SMILES: COc1cccc(/C=C/C(=O)c2ccccc2O)c1
Activity (Neutrophil [5]): Non-Toxic
Ratio IC50 [4]: 2

SMILES: COc1cc(O)c(C(=O)/C=C/c2cc(OC)c(OC)c(OC)c2)c(OC)c1
Imax [14]: 18%
Imax [15]: 25%
Activity (Neutrophil [16]): Non-Toxic

IC50 [1]: 5 µM
IC50 [2]: 4.4 µM
SMILES: O=C(/C=C/c1ccc(O)c(O)c1)c1c(O)cc(O)cc1O [3,4,2',4',6'-PENTAHYDROXYCHALCONE]
inhibition at 50 µM [17]: 48%
inhibition (Neutrophil [18]): Dose-dependent effect
Activity (Neutrophil [3]): Non-Toxic

SMILES: COc1ccccc1/C=C/C(=O)c1ccccc1O
Activity (Neutrophil [19]): Non-Toxic
Imax [15]: 50%
Imax [20]: 34%

SMILES: COc1ccc(/C=C/C(=O)c2c(O)cc(OC)cc2OC)cc1 [FLAVOKAWAIN A]
Imax [21]: 13%
Imax [14]: 19%
Activity (Neutrophil [16]): Non-Toxic

IC50 [1]: 2 µM
IC50 [2]: 1 µM
SMILES: COc1cc(/C=C/C(=O)c2ccccc2O)ccc1O
Activity (Neutrophil [22]): 0.4%
Activity (Neutrophil [23]): 0.4%
Activity (Neutrophil [19]): Non-Toxic

IC50 [1]: 5.8 µM
IC50 [2]: 5.8 µM
SMILES: O=C(/C=C/c1ccccc1O)c1ccccc1O
Activity (Neutrophil [5]): Non-Toxic

IC50 [1]: 5.3 µM
IC50 [2]: 5.4 µM
SMILES: O=C(/C=C/c1ccc(Cl)cc1)c1ccccc1 [4-CHLORO CHALCONE]
Activity (Neutrophil [11]): Non-Toxic

IC50 [1]: 74 µM
IC50 [2]: 78 µM
SMILES: COc1cc(O)c(C(=O)/C=C/c2ccc(OC)c(OC)c2)c(OC)c1
Activity (Neutrophil [13]): Non-Toxic

SMILES: Cc1cc(C)c(/C=C/C(=O)c2ccccc2O)c(C)c1
Imax [14]: 25%
Imax [15]: 26%
Activity (Neutrophil [16]): Non-Toxic

IC50 [1]: 5 µM
IC50 [2]: 6.7 µM
SMILES: O=C(/C=C/c1ccccc1O)c1ccccc1
Activity (Neutrophil [3]): Non-Toxic

IC50 [1]: 7 µM
IC50 [2]: 6.4 µM
SMILES: COc1ccc(/C=C/C(=O)c2ccc(O)cc2O)cc1OC
Activity (Neutrophil [11]): Non-Toxic

SMILES: O=C(/C=C/c1ccc(Cl)cc1Cl)c1ccccc1O
Imax [10]: 30%
Activity (Neutrophil [11]): Non-Toxic
Imax [12]: 28%
